Each structure is given as a SMILES string.

The data set in a line: gradient 5% acetonitrile 3 min, to 50% in 2 min, to 85% in 15 min, held 3 min, 100 µL/min. As to conditions: column: Zorbax Extend-C18 2.1 x 50 mm; eluents: water / acetonitrile, 0.1% formic acid. A digest of the protocol:
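Pure standards were analyzed in mixtures of ~100 molecules using HPLC coupled to a quadrupole time-of-flight mass spectrometer, in both positive and negative ionization mode. Separation used a Zorbax Extend-C18 column (2.1 × 50 mm, 1.8 μm) at 100 μL/min, with water and acetonitrile each containing 0.1% formic acid. Dead and dwell volumes were 40 μL and 900 μL, and data were collected over 3 months. Retention time was read from computationally picked adduct peaks, each inspected manually.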
`CCCNC(=O)CC1Sc2ncccc2N(CCC)C1=O` (stereo not given) came in with an RP-LC retention time of 683 s.
Then `CCN(CC)CCNC(=O)CN1C(=O)C2CCCCN2c2ccc(C(=O)N3CCCC3)cc21` (stereo not given), with 614 s; and `O=C1CCCc2nc(N3CCN(c4ccccn4)CC3)nc(Nc3ccccc3)c21`, with 735 s; and `CC(C)NC(=O)C1CC(=O)N(C2CCCCC2)C1` (stereo not given), with 657 s.
`COc1cc(C2CC(=O)N(CC(=O)NCC3CCCO3)c3ccccc3S2)cc(OC)c1OC` (stereo not given): the RP-LC retention time worked out at 772 s.
`Cc1cccc(-c2nnc(SCc3cc(=O)n4c(C)csc4n3)o2)c1` registered an RP-LC retention time of 873 s.
The value for `CCn1c(=O)c(C(=O)N2CCN(c3ccccn3)CC2)nc2cc(C)c(C)cc21` was 625 s; that for `Cc1cc(C)cc(C(=O)N2CCC3(CC2)NC(=O)c2ccccc2N3C)c1` was 804 s; that for `O=C(Nc1cccc(Cl)c1)C1CCCN1S(=O)(=O)c1cccc2nsnc12` (stereo not given) was 949 s.
The value for `COc1ccc(NC(=O)N2CCC3(CC2)NC(=O)c2ccccc2N3C)c(OC)c1` was 649 s.
Then `O=C(c1csc(S(=O)(=O)N2CCC(C(=O)N3CCc4ccccc43)CC2)c1)N1CCOCC1`, with 779 s.
The compound `CS(=O)(=O)N1CCC(C(=O)NCCC2=CCCCC2)Oc2ccc(Cl)cc21` (stereo not given) showed an RP-LC retention time of 1020 s.
The value for `Clc1cc2c(c(CN3CCN(c4ccccc4)CC3)c1)OCOC2` was 584 s.
As to `COc1ccc(Cc2nc3nccc(-c4ccccn4)n3n2)cc1`, the RP-LC retention time was found to be 768 s.
Regarding `Cc1ccc(NC(=O)C2CCCN(S(=O)(=O)c3cn(C(C)C)cn3)C2)cc1F` (stereo not given), the RP-LC retention time came out at 847 s.
The value for `O=C(NCCc1ccccc1)c1ccc2c(c1)CCN2C(=O)C1CC1` was 814 s; that for `Cc1ccc(NC(=O)Cn2nc(N3CCOCC3)c3ccccc3c2=O)cc1F` was 836 s.
In the case of `CCOc1ccc(NC(=O)C2CCN(S(C)(=O)=O)c3ccccc3O2)cc1` (stereo not given), the RP-LC retention time stood at 877 s.
Then `O=C(Cn1nc(N2CCCC2)c2ccccc2c1=O)NCc1ccccc1`, with 837 s; and `CCN1CCN(c2nc(F)c3c(c2F)S(=O)(=O)CCN3CCOC)CC1`, with 581 s.
The compound `COCc1cc2nn(CC(=O)NC3CCCC3)c(=O)n2c(-c2ccccc2)n1` had an RP-LC retention time of 727 s.
`O=C(c1ccoc1)N1CCC(F)(C(=O)NCC2CC2)CC1` showed an RP-LC retention time of 618 s.
In the case of `CCOC(=O)c1oc2ccc(S(=O)(=O)N3CC4CN(C)CC(C3)O4)cc2c1C`, the RP-LC retention time came out at 649 s.
The value for `O=C(NC1CCN(Cc2ccccc2)CC1)c1cn2cc(Cl)ccc2n1` was 610 s; that for `CC(=O)Nc1ccc(S(=O)(=O)N2CCCC2c2nc(-c3ccc(F)cc3)no2)cc1Cl` (stereo not given) was 990 s; that for `Cc1ccc(Nc2nc(-c3ccc(Br)cc3)cs2)nc1` was 1080 s.
The value for `COc1cccc2cc(-c3nnc(NC(=O)c4ccc5ncsc5c4)o3)oc12` was 725 s; that for `COc1ccc(-c2cc3nn(CC(=O)Nc4cccc(Cl)c4)c(=O)n3c(C)n2)cc1` was 979 s; that for `CCOC(=O)CNC(=O)NCCc1nc2cccnc2n1-c1ccccc1` was 608 s.
Then `COC(=O)c1cc(S(=O)(=O)N2CCCC2C(=O)NCc2ccc(Cl)cc2)cn1C` (stereo not given), with 865 s; and `CC(C)c1noc(-c2ccnc(-n3cnc(C(=O)NC4CCCCC4)c3)c2)n1`, with 1020 s; and `Cc1nc2cc(N3CCCC(C(=O)N4CCN(c5ccccn5)CC4)C3)cnc2nc1C` (stereo not given), with 581 s.
Compound `COc1ccc(-c2noc(C3CCCN3C(=O)Nc3ccc(C)cc3)n2)cc1` (stereo not given) displayed an RP-LC retention time of 830 s.
Then `O=C(CSc1nnc(-c2ccccc2F)o1)N1CCCc2ccccc21`, with 872 s; and `COC1(C2=NCCN2)COc2ccccc2O1` (stereo not given), with 581 s.
The compound `CCOc1ccccc1NC(=O)N1CC(n2cnnc2-c2ccccc2)C1` gave an RP-LC retention time of 722 s.
On to `Cc1nc(C)c(C(=O)Nc2ccc(F)c(C)c2)s1`, for which the RP-LC retention time amounted to 810 s.
Then `CCN1CCN(c2cc(C)c3cc(NC(=O)c4ccc([N+](=O)[O-])c(C)c4)ccc3n2)CC1`, with 621 s; and `COc1ccc(-c2noc(C3CC(=O)N(c4ccc(C)c(C)c4)C3)n2)cc1OC` (stereo not given), with 928 s; and `Cn1c(CNC(=O)C2CCC2)nc2c1CN(C(=O)Cc1ccc(Cl)cc1)CC2`, with 623 s.
The value for `CCc1nc(-c2cccc(-c3noc(COc4cccc(C)c4)n3)c2)cs1` was 1390 s; that for `CCCc1sc(NC(=O)Cn2nc3c(cc2=O)CCCC3)nc1C(=O)OC` was 840 s; that for `O=C(C1CCN(c2nc3ccc(-c4ccccc4)nc3s2)CC1)N1CCCCC1` was 1040 s.
Then `CCc1ccc(N2CC(c3noc(-c4cccc(Cl)c4)n3)CC2=O)cc1` (stereo not given), with 1200 s; and `CCc1nnc2nc(N3CCN(C(=O)c4cccc(N(C)C)c4)CC3)cc(C)n12`, with 574 s; and `COc1ccc2c(c1)C1(CCN(C(=O)Nc3ccccc3C)C1)C(=O)N2C` (stereo not given), with 750 s.
In the case of `CN(C)C(=O)[C@H](O)[C@H](Cc1ccccc1)NC(=O)c1cc2cc(Cl)ccc2[nH]1`, the RP-LC retention time amounted to 956 s.
The value for `CC(CN(CCS(=O)(=O)N1CCNCC1)C(=O)c1ccc(Br)cc1)c1ccccc1` (stereo not given) was 735 s; that for `CCCNC(=O)C1CCCN(c2ccc(SCC(=O)Nc3cccc(C(F)(F)F)c3)nn2)C1` (stereo not given) was 744 s; that for `COC(=O)c1c(C)[nH]c(C(=O)N2CCCC(C(=O)NCc3cccc(Br)c3)C2)c1C` (stereo not given) was 813 s.
Compound `CSc1ccc(-c2nc3ccc(Cl)cn3c2Nc2ccccc2C)cc1` yielded an RP-LC retention time of 954 s.
The value for `C=C(C)CN1CCN(c2cc(C)nc3c(C)c(-c4ccc(Cl)cc4)nn23)CC1` was 693 s.
Then `Cc1nnc(Cc2ccccc2)c2n[nH]c(C)c12`, with 647 s; and `O=C(Cc1cc(-c2cc3ccccc3o2)on1)NCCc1c[nH]c2ccccc12`, with 883 s; and `C=Cc1ccc(CN2CCCN(c3ncccc3-c3nc(CCC)no3)CC2)cc1`, with 766 s.
With `O=C(O)c1cc(NS(=O)(=O)c2ccccc2)ccc1N1CCCC(CN2CCCC2)C1` (stereo not given), the RP-LC retention time is 927 s.
The value for `CCc1cc(=O)n(CC(=O)Nc2cccc(Cl)c2C)c(N2CCOCC2)n1` was 771 s.
As to `CCN1CCn2cc(S(=O)(=O)Nc3cccc(C(=O)OC)c3)cc2C1=O`, the RP-LC retention time came to 703 s.
With `O=C(NC1COc2ccccc2C1)N1CCN(c2ccccn2)CC1` (stereo not given), the RP-LC retention time was 616 s.
As to `CCCn1nc(CNC(=O)c2ccc3c(c2)OCO3)c2ccccc21`, the RP-LC retention time was determined as 843 s.
The value for `CCc1noc(-c2nc(-c3ccc(OC)c(OC)c3)no2)n1` was 976 s; that for `Cc1ccc(CC(=O)NC2CCN(c3ccccc3)C2=O)cc1` (stereo not given) was 797 s.
Compound `CCC(C(=O)NCCc1c(C)noc1C)n1c2ccccc2c2cnn(C)c(=O)c21` (stereo not given) gave an RP-LC retention time of 739 s.
Regarding `Cc1ccnc(Nc2nc(-c3cc(C)c(C)cc3C)cs2)c1`, the RP-LC retention time worked out at 953 s.
Then `CCCN1C(=O)C2CCC(=O)N2c2ccc(C(=O)NCCCN3CCOCC3)cc21` (stereo not given), with 570 s.
Turning to `O=C(Cc1cn(Cc2ccc(Cl)cc2)c2ccccc12)NC1CC1`, the RP-LC retention time came to 884 s.
The value for `Fc1ccccc1-c1nc2ccc(Cl)cn2c1Nc1ccc(Cl)cc1` was 909 s.
For the compound `O=C(Nc1ccc(N2CCN(c3ccccc3)C2=O)nc1)c1cccc(Cl)c1`, the RP-LC retention time is 959 s.
`COC(=O)C1=CN(c2ccc(Cl)cc2)c2cc(F)ccc2S1(=O)=O`: the RP-LC retention time came to 919 s.
With `Cc1ccc(-n2cc3c(c(C(=O)N4CCCC4)c2=O)CC(C)(C)CC3=O)cc1`, the RP-LC retention time worked out at 758 s.
`Cc1noc(C)c1CCC(=O)N1CCC(c2nnc(-c3ccco3)s2)CC1` gave an RP-LC retention time of 666 s.
`CCOc1ccccc1-c1nc(Cn2cnc3onc(C)c3c2=O)c(C)o1` had an RP-LC retention time of 928 s.
`CC(C)c1ccc(OCC(=O)Nc2nnc(C3CC(=O)N(c4ccc(F)cc4)C3)o2)cc1` (stereo not given) yielded an RP-LC retention time of 904 s.
The value for `Cc1ccc(F)c(NC(=O)c2nc(C)oc2C)c1` was 1010 s; that for `O=C(Cn1nc(N2CCCCCC2)c2ccccc2c1=O)Nc1cccc(Cl)c1` was 1180 s.
Consider `CCOc1ccc(-n2c(=O)c3sccc3n(Cc3nc(-c4ccc(Cl)c(F)c4)no3)c2=O)cc1`, for which the RP-LC retention time was found to be 1140 s.
The compound `Cc1cccc(-c2noc(Cn3cnc4c(cnn4-c4ccc(C)c(Cl)c4)c3=O)n2)c1` displayed an RP-LC retention time of 1280 s.
Then `CCc1cccc(NC(=O)Nc2cccc(-c3ccc(N4CCOCC4)nn3)c2)c1`, with 770 s; and `CC(C)NC(=O)c1ccc(-c2nc3cc(NS(=O)(=O)Cc4cccc(F)c4)ccc3n2C)cc1`, with 687 s; and `CCN1CCN(CCNC(=O)Cn2ccc3c(C)nn(CC)c3c2=O)CC1`, with 557 s.

(Values after the METLIN SMRT retention time set (Domingo-Almenara et al. 2019).)
